Assay results: patent US20240376411A1, “IMPROVED PERFUME COMPOSITIONS COMPRISING SULFUR-CONTAINING PRO-FRAGRANCE COMPOUNDS” (FIRMENICH SA, priority 2021, published 2024)

Key:
[1] = Sensorial evaluation (hydrogen sulfide smell) of perfume compositions upon 1 and 2 weeks of storage at 50° C.; assay type: physicochemical; conditions: for amount in the perfume composition that does not lead to an unpleasant hydrogen sulfide smell upon storage: conclusion from Tables 2 to 4, storage at 50° C.
Excerpt: To the first perfume composition, a perfumery raw material that promotes the formation of hydrogen sulfide ((−)-(2E)-2-ethyl-4-[(1R)-2,2,3-trimethyl-3-cyclopenten-1-yl]-2-buten-1-ol) has been added at various amounts (5 wt. %, 10 wt. %, 20 wt. %, 30 wt. %, and 40 wt. %, respectively, based on the total weight of the perfume composition). For each amount, it has been tested whether a hydrogen sulfide malodor could be perceived upon storage of the final perfume composition for 1 and 2 weeks, respectively, at 50° C.
Likewise, to the second perfume composition, a perfumery raw material that promotes the formation of hydrogen sulfide ((+/−)-3-methyl-5-phenyl-1-pentanol) has been added at various amounts (5 wt. %, 10 wt. %, 20 wt. %, 30 wt. %, and 40 wt. %, respectively, based on the total weight of the perfume composition). For each amount, it has been tested whether a hydrogen sulfide malodor could be perceived upon storage of the final perfume composition for 1 and 2 weeks, respectively, at 50° C.
Likewise, to the third perfume composition, a perfumery raw material that promotes the formation of hydrogen sulfide ((+/−)-3,7-dimethyl-6-octen-1-ol) has been added at various amounts (5 wt. %, 10 wt. %, 20 wt. %, 30 wt. %, and 40 wt. %, respectively, based on the total weight of the perfume composition). For each amount, it has been tested whether a hydrogen sulfide malodor could be perceived upon storage of the final perfume composition for 1 and 2 weeks, respectively, at 50° C.

[2] = logP above 4 (octanol-water partition coefficient); conditions: Yes/No
[3] = 5 wt. % of the raw material in the perfume composition, even after 2 weeks of storage
[4] = 10 wt. % of the raw material in the perfume composition, even after 2 weeks of storage
[5] = above 20 wt. % of the raw material, after 1 week of storage

| Compound | unpleasant hydrogen sulfide smell [1, 3] | unpleasant hydrogen sulfide smell [1, 4] | unpleasant hydrogen sulfide smell [1, 5] | amount in the perfume composition that does not lead to an unpleasant hydrogen sulfide smell upon storage [1] | logP > 4 [2] | unpleasant hydrogen sulfide smell ([1]; at 20 wt. % (and above) of the raw material, only after 1 week of storage at 50° C.) |
| --- | --- | --- | --- | --- | --- | --- |
| CC(C)=CCCC(C)CCO (racemic) [(+/−)-3,7-dimethyl-6-octen-1-ol] | no unpleasant hydrogen sulfide smell could be perceived | no unpleasant hydrogen sulfide smell could be perceived | unpleasant hydrogen sulfide smell was perceived | up to 19 wt. % | No |  |
| CC(CCO)CCc1ccccc1 (racemic) [(+/−)-3-methyl-5-phenyl-1-pentanol] | no unpleasant hydrogen sulfide smell could be perceived | no unpleasant hydrogen sulfide smell could be perceived | unpleasant hydrogen sulfide smell was perceived | up to 19 wt. % | No |  |
| CC/C(=C\C[C@H]1CC=C(C)C1(C)C)CO [(−)-(2E)-2-ethyl-4-[(1R)-2,2,3-trimethyl-3-cyclopenten-1-yl]-2-buten-1-ol] | no unpleasant hydrogen sulfide smell could be perceived | no unpleasant hydrogen sulfide smell could be perceived |  | up to 19 wt. % | Yes | unpleasant hydrogen sulfide smell was perceived |
